According to patent US4632905A, “Microbial sulfhydryl oxidase” (Novo Laboratories, Inc., priority 1985, dated 1986):
Where “and” joins values, the source holds several entries; their conditions need not be identical. Identical values can stand only once.

Legend:
Format in all cases: biochemical
Aspergillus sojae SOX [1] = test: Substrate specificity of SOX toward low MW thiol compounds, polarographic (oxygen consumption); details: 1 mM test compound, 227 μM oxygen, 50 mM potassium phosphate pH 6.7, 30° C., corrected for auto-oxidation
Experimental: SOX activity may be ascertained by two methods. The activity may be determined by measuring the oxygen consumed when a suitable substrate, e.g., reduced glutathione, is oxidized enzymatically to the corresponding disulfide. The stoichiometry involved is according to the equations 1 and 2 below, namely, 1/2 oxygen consumed per disulfide formed, when the reaction is carried out in the presence of catalase activity.
The assay employs oxygen electrode techniques and is used with low MW compounds as substrates.
The ability of low MW thiol-containing compounds to serve as substrates for SOX was determined polarographically at 30° C., pH 6.7. […] Protein specificity was determined with proteins in their reductively denatured state. Reductive denaturation is accomplished by submitting the protein to a denaturant e.g., urea and a mercaptan such as beta-mercaptoethanol at pH 8.5. Renaturation is then achieved by incubating the reduced protein with the SOX for a period of time at pH 7.0. The progress of the renaturation can easily be assessed by reaction of the protein with DTNB.
The activity of the SOX preparation may be determined polarographically by measuring the oxygen consumed when a substrate e.g., reduced glutathione (GSH) is oxidized to the corresponding disulfide. The activity may also be determined spectrophotometrically using dithiobisnitrobenzoic acid (DTNB) which specifically reacts with a free sulfhydryl by measuring the absorption at 412 nm (ε=13.6×10^3 M^-1 cm^-1). Therefore, one unit of activity is defined as that amount of enzyme which catalyzes the consumption of 1.0 μmole of oxygen per minute or loss of 2.0 μmoles of free sulfhydryls per minute at 30° C., pH 6.7 using 1 mM GSH as substrate.
The substrate specificity of SOX toward low MW compounds containing a free SH moiety was ascertained by polarographic methodology. The activities were measured relative to glutathione (GSH) at 30° C. in the following assay system: 1 mM test compound, 227 μM molecular oxygen, 50 mM potassium phosphate pH 6.7, and sufficient SOX to yield a linear decrease in oxygen during the first three minutes. The rates were corrected for auto-oxidation.

bovine SOX = test: Inhibition of bovine SOX; details: 1 mM concentration
Aspergillus sojae SOX [2] = test: Inhibition of Aspergillus sojae SOX

## O[C@H](CS)[C@H](O)CS (racemic) [D,L--dithiothreitol, D,L-dithiothreitol]
Aspergillus sojae SOX [1]
  % of Activity with GSH: 5.6%
Aspergillus sojae SOX [1]; listed as D,L-dithiothreitol
  % of Activity with GSH: 3-22%

## N[C@H](CS)C(=O)O [D--cysteine, D-cysteine]
Aspergillus sojae SOX [1]
  % of Activity with GSH: 4.1%
Aspergillus sojae SOX [1]; listed as D-cysteine
  % of Activity with GSH: 3-22%

## O=C(O)CN(CCN(CC(=O)O)CC(=O)O)CC(=O)O [EDTA]
Bovine SOX
  Inhibition of bovine SOX: almost completely
Aspergillus sojae SOX [2]; concentration not printed for this enzyme
  Inhibition of Aspergillus sojae SOX: not inhibited

## N[C@@H](CS)C(=O)O [L--cysteine, L-Cysteine]
Aspergillus sojae SOX [1]
  % of Activity with GSH: 8.7%
Aspergillus sojae SOX [1]; listed as L-Cysteine
  % of Activity with GSH: 3-22%

## CCOC(=O)[C@@H](N)CS [L--cysteine, ethyl ester, L-cysteine ethyl ester]
Aspergillus sojae SOX [1]
  % of Activity with GSH: 21.8%
Aspergillus sojae SOX [1]; listed as L-cysteine ethyl ester
  % of Activity with GSH: 3-22%

## CC(=O)N[C@@H](CS)C(=O)O [N--acetyl-L--cysteine, N-acetyl-L-cysteine]
Aspergillus sojae SOX [1]
  % of Activity with GSH: 3.0%
Aspergillus sojae SOX [1]; listed as N-acetyl-L-cysteine
  % of Activity with GSH: 3-22%

## O=S(=O)([O-])[O-].[Zn+2] [ZnSO4]
Bovine SOX
  Inhibition of bovine SOX: non-inhibitory
Aspergillus sojae SOX [2]; 1 mM concentration
  Inhibition of microbial SOX: partially inhibited

## OCCS [beta-mercaptoethanol]
Aspergillus sojae SOX [1]
  % of Activity with GSH: 3-22% and 4.2%

## O[C@H](CS)[C@@H](O)CS [dithioerythreitol, D,L-dithioerythreitol]
Aspergillus sojae SOX [1]
  % of Activity with GSH: 6.6%
Aspergillus sojae SOX [1]; listed as D,L-dithioerythreitol
  % of Activity with GSH: 3-22%

## N[C@@H](CCC(=O)N[C@@H](CS)C(=O)NCC(=O)O)C(=O)O [glutathione, δ-L-glutamyl-L-cysteinyl-glycine]
Aspergillus sojae SOX [1]
  % of Activity with GSH: 100%
